Our source for the inhibition values is patent US6251893A, “Bicyclic piperidine and piperazine compounds having 5-HT6 receptor affinity” (NPS Allelix Corp., priority 1998, dated 2001).

In one test the target is 5-HT2A receptor (Homo sapiens, UniProt P28223). The experiment in a line: Binding to 5-HT2A receptor (selectivity). More on the design: dose or concentration left out as unconfirmed. The settings on record: selectivity versus 5-HT6; read-out: percent inhibition for the 5-HT2A receptor.
In a further test the target is T1, 5HT2C receptor (Homo sapiens, UniProt P28335).
T1 sequence (P28335 33-458): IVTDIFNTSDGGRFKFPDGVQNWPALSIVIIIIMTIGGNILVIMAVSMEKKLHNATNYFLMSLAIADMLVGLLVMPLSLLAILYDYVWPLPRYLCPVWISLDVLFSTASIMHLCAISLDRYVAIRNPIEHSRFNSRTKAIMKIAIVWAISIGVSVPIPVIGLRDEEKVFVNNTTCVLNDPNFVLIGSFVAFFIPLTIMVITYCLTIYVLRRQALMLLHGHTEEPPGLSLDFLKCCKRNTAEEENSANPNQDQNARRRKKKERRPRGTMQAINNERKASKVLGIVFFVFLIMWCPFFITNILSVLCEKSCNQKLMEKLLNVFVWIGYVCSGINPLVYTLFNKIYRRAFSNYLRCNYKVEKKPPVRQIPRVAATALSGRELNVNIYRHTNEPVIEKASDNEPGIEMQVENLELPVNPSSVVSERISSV
Kind of test: Binding to 5HT2C receptor (selectivity). The conditions noted are these: selectivity versus 5-HT6; read-out: percent inhibition for the 5HT2C receptor.

The target in another test is human 5HT6 receptor (Homo sapiens, UniProt P50406). The experiment in a line: Binding affinity for the 5-HT6 receptor (3H-LSD displacement). The conditions noted are these: 100 nM test compound; 3H-LSD (2 nM); 60 minute incubation at 37° C; read-out: percent inhibition of radioligand binding for the 5-HT6 receptor. More on the design: expressed in transfected cells. The protocol:
Binding Affinity for the 5-HT6 Receptor
The assay protocol generally entailed the incubation of membranes prepared from cells expressing the 5-HT6 receptor with ^3 H-LSD (2 nM). Increasing levels of the test compound were incubated with the radioligand and the membrane homogenates prepared from the recombinant cells. After a 60 minute incubation at 37° C., the incubation was terminated by vacuum filtration. The filters were washed with buffer and the filters were counted for radioactivity using liquid scintillation spectrometry. […] Concentrations ranging from 10^-11 M to 10^-5 M of the test compound were evaluated. […] Affinity for the 5-HT6 receptor is expressed as the amount (in percent) of binding of the radioligand that is inhibited in the presence of 100 nM of test compound. A greater percent inhibition indicates greater affinity for the 5-HT6 receptor.

For a further test, the target named is 5-HT7 receptor (Homo sapiens, UniProt P34969). Kind of test: Binding to 5-HT7 receptor (selectivity). Set-up: dose or concentration left out as unconfirmed. The settings on record: selectivity versus 5-HT6; read-out: percent inhibition for the 5-HT7 receptor.
5-HT7 receptor, sequence (P34969 whole entry): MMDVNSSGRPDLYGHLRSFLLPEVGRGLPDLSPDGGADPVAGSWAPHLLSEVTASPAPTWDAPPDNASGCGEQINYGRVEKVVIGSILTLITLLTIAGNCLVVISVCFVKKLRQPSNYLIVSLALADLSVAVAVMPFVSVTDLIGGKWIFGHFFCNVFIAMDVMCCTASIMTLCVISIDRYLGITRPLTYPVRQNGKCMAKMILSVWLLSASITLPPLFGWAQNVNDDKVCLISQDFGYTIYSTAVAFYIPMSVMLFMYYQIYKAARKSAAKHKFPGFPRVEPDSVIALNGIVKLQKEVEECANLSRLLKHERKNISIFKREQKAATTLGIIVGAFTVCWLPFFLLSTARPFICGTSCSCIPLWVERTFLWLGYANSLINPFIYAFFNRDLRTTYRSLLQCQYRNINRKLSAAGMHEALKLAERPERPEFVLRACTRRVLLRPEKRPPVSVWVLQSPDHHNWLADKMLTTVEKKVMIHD

human 5HT6 receptor, sequence (P50406 whole entry): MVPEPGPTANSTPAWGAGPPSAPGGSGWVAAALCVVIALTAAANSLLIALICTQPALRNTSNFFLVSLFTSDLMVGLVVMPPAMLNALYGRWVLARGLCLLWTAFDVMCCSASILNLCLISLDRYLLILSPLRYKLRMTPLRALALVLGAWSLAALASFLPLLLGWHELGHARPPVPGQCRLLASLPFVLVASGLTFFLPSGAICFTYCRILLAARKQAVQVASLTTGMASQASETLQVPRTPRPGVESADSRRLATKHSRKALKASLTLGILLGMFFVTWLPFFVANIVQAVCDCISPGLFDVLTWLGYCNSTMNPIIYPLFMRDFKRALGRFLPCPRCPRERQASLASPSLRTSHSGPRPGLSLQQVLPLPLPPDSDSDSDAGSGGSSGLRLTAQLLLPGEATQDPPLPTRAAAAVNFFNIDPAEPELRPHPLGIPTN
5-HT2A receptor, sequence (P28223 whole entry): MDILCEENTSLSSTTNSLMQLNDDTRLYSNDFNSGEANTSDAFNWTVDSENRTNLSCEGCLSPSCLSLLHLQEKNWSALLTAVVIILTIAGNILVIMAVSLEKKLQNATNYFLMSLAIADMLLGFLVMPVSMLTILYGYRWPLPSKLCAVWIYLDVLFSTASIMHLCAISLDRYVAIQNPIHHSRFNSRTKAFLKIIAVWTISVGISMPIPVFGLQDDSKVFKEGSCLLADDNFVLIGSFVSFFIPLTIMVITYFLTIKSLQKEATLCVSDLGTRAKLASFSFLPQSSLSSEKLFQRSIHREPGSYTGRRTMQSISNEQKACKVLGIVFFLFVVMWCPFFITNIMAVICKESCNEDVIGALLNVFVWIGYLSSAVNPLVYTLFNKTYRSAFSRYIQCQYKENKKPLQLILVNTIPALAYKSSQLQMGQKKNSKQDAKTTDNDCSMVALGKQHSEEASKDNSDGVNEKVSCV

For the compound `COc1ccc2c(c1)c(C1=CCN3CCCC3C1)cn2S(=O)(=O)c1ccc2ccccc2c1` (racemic) [Example 6oo, 5-Methoxy-3-[(8a-R,S)-1,2,3,5,8,8a-hexahydro-7-indolizinyl]-2-naphthalenesulfonylindole], the inhibition on 5-HT2A receptor and on 5-HT7 receptor was less than 20% in each case. In addition, the inhibition at 0.1 µM on 5HT2C receptor is less than 20%; at human 5HT6 receptor, greater than 80%.
Regarding `COc1ccc(S(=O)(=O)n2cc(C3=CCN4CCCC4C3)c3cc(F)ccc32)cc1` (racemic) [Example 6ee, 5-Fluoro-3-[(8a-R,S)-1,2,3,5,8,8a-hexahydro-7-indolizinyl]-1-(4-methoxyphenylsulfonyl)indole], the inhibition at 5-HT2A receptor and on 5-HT7 receptor was less than 20% in each case. The inhibition at 0.1 µM on 5HT2C receptor is less than 20%; at human 5HT6 receptor, greater than 80%.
`Cc1cccc2c(C3=CCN4CCCC4C3)cn(S(=O)(=O)c3cccc4ccccc34)c12` (racemic) [Example 6tt, 7-Methyl-3-[(8a-R,S)-1,2,3,5,8,8a-hexahydro-7-indolizinyl]-1-naphthalenesulfonylindole]: the inhibition on 5-HT2A receptor and at 5-HT7 receptor was less than 20% throughout. Further, the inhibition at 0.1 µM on 5HT2C receptor was less than 20%; at human 5HT6 receptor it was greater than 80%.
For the compound `Cc1cccc2c(C3=CCN4CCCC4C3)cn(S(=O)(=O)c3ccccc3)c12` (racemic) [Example 6ss, 7-Methyl-3-[(8a-R,S)-1,2,3,5,8,8a-hexahydro-7-indolizinyl]-1-phenylsulfonylindole], the inhibition on 5-HT2A receptor and on 5-HT7 receptor was less than 20% throughout. Further, the inhibition at 0.1 µM on 5HT2C receptor was less than 20%; on human 5HT6 receptor, greater than 80%.
Regarding `COc1ccc2c(c1)c(C1=CCN3CCCC3C1)cn2S(=O)(=O)c1cccc2ccccc12` (racemic) [Example 6nn, 5-Methoxy-3-[(8a-R,S)-1,2,3,5,8,8a-hexahydro-7-indolizinyl]-1-naphthalenesulfonylindole], the inhibition on 5-HT2A receptor and on 5-HT7 receptor was less than 20% in each case. Besides, the results for the inhibition at 0.1 µM at 5HT2C receptor and at human 5HT6 receptor were less than 20% and greater than 80%, respectively.
As for `COc1ccc(S(=O)(=O)n2cc(N3CCN4CCCC4C3)c3ccccc32)cc1` (racemic) [Example 6g, 3-[(6-R,S)-1,4-Diaza[4.3. 0]bicyclonon-4-yl]-1-(4-methoxyphenylsulfonyl)indole], the inhibition on 5-HT2A receptor and on 5-HT7 receptor was less than 20% throughout. The results for the inhibition at 0.1 µM on 5HT2C receptor and at human 5HT6 receptor were less than 20% and greater than 80%, respectively.
Consider `O=S(=O)(c1ccc2ccccc2c1)n1cc(N2CCN3CCCCC3C2)c2ccccc21` (racemic) [Example 6l, 3-[(6-R,S)-1,4-Diaza[4.4. 0]bicyclodecan-4-yl]-1-(2-naphthalenesulfonyl)indole], for which the inhibition on 5-HT2A receptor and at 5-HT7 receptor was less than 20% each time. For the same compound, the inhibition at 0.1 µM is less than 20% on 5HT2C receptor and greater than 80% on human 5HT6 receptor.
Regarding `O=S(=O)(c1ccc(Br)cc1)n1cc(N2CCN3CCCCC3C2)c2ccccc21` (racemic) [Example 6n, 1-(4-Bromophenylsulfonyl)-3-[(6-R,S)-1,4-diaza[4.4. 0]bicyclodecan-4-yl]indole], the inhibition at 5-HT2A receptor and at 5-HT7 receptor was less than 20% in each case. Besides, the inhibition at 0.1 µM on 5HT2C receptor was less than 20%; at human 5HT6 receptor it was greater than 80%.
Turning to `O=S(=O)(c1ccccc1)n1cc(N2CCN3CCCCC3C2)c2ccccc21` (racemic) [Example 6u, 3-[(6-R,S)-1,4-Diaza[4.4.0]bicyclodecan-4-yl]-1-(phenylsulfonyl)indole], the inhibition on 5-HT2A receptor and at 5-HT7 receptor was less than 20% each time. Further, the values for the inhibition at 0.1 µM at 5HT2C receptor and at human 5HT6 receptor were less than 20% and greater than 80%, respectively.
Turning to `O=S(=O)(c1ccc(Br)cc1)n1cc(C2=CCN3CCCC3C2)c2cc(F)ccc21` (racemic) [Example 6bb, 1-(4-Bromophenylsulfonyl)-5-fluoro-3-[(8a-R,S)-1,2,3,5,8,8a-hexahydro-7-indolizinyl]indole], the inhibition on 5-HT2A receptor and on 5-HT7 receptor was less than 20% in each case. Further, the figures for the inhibition at 0.1 µM at 5HT2C receptor and on human 5HT6 receptor were less than 20% and greater than 80%, respectively.
Regarding `O=S(=O)(c1ccccc1Br)n1cc(C2=CCN3CCCC3C2)c2cc(F)ccc21` (racemic) [Example 6cc, 1-(2-Bromophenylsulfonyl)-5-fluoro-3-[(8a-R,S)-1 ,2,3,5,8,8a-hexahydro-7-indolizinyl]indole], the inhibition on 5-HT2A receptor and at 5-HT7 receptor was less than 20% in each case. In addition, the inhibition at 0.1 µM on 5HT2C receptor is less than 20%; on human 5HT6 receptor it was greater than 80%.
On to `COc1ccc2c(c1)c(C1=CCN3CCCC3C1)cn2S(=O)(=O)c1ccccc1` (racemic) [Example 6mm, 5-Methoxy-3-[(8a-R,S)-1,2,3,5,8,8a-hexahydro-7-indolizinyl]-1-phenylsulfonylindole], for which the inhibition on 5-HT2A receptor and on 5-HT7 receptor was less than 20% throughout. Moreover, the inhibition at 0.1 µM at 5HT2C receptor was less than 20%; at human 5HT6 receptor, greater than 80%.
For `O=S(=O)(c1ccc2ccccc2c1)n1cc(C2=CCN3CCCC3C2)c2cc(F)ccc21` (racemic) [Example 6z, 5-Fluoro-3-[(8a-R,S)-1,2,3,5,8,8a-hexahydro-7-indolizinyl]-1-(2-naphthalenesulfonyl)indole], the inhibition at 5-HT2A receptor and at 5-HT7 receptor was less than 20% throughout. Besides, the figures for the inhibition at 0.1 µM on 5HT2C receptor and on human 5HT6 receptor were less than 20% and greater than 80%, respectively.
With `O=S(=O)(c1cccc2ccccc12)n1cc(C2=CCN3CCCC3C2)c2cc(F)cc(F)c21` (racemic) [Example 6kk, 5,7-Difluoro-3-[(8a-R,S)-1,2,3,5,8,8a-hexahydro-7-indolizinyl]-1-naphthalenesulfonylindole], the inhibition at 5-HT2A receptor and on 5-HT7 receptor was less than 20% each time. Moreover, the inhibition at 0.1 µM at 5HT2C receptor was less than 20%; on human 5HT6 receptor, greater than 80%.
On to `O=S(=O)(c1ccccc1)n1cc(C2=CCN3CCCC3C2)c2cc(F)cc(F)c21` (racemic) [Example 6jj, 5,7-Difluoro-3-[(8a-R,S)-1,2,3,5,8,8a-hexahydro-7-indolizinyl]-1-phenylsulfonylindole], for which the inhibition on 5-HT2A receptor and at 5-HT7 receptor was less than 20% each time. Also, the inhibition at 0.1 µM at 5HT2C receptor was less than 20%; on human 5HT6 receptor, greater than 80%.
For `Cc1ccc2c(c1)c(C1=CCN3CCCC3C1)cn2S(=O)(=O)c1ccccc1` (racemic) [Example 6pp, 5-Methyl-3-[(8a-R,S)-1,2,3,5,8,8a-hexahydro-7-indolizinyl]-1-phenylsulfonylindole], the inhibition at 5-HT2A receptor and on 5-HT7 receptor was less than 20% throughout. Also, the inhibition at 0.1 µM on 5HT2C receptor is less than 20%; on human 5HT6 receptor, greater than 80%.
Take `Cc1ccc2c(c1)c(C1=CCN3CCCC3C1)cn2S(=O)(=O)c1ccc2ccccc2c1` (racemic) [Example 6rr, 5-Methyl-3-[(8a-R,S)-1,2,3,5,8,8a-hexahydro-7-indolizinyl]-2-naphthalenesulfonylindole]: the inhibition on 5-HT2A receptor and at 5-HT7 receptor was less than 20% each time. The inhibition at 0.1 µM on 5HT2C receptor was less than 20%; on human 5HT6 receptor, greater than 80%.
Turning to `Cc1ccc2c(c1)c(C1=CCN3CCCC3C1)cn2S(=O)(=O)c1cccc2ccccc12` (racemic) [Example 6qq, 5-Methyl-3-[(8a-R,S)-1,2,3,5,8,8a-hexahydro-7-indolizinyl]-1-naphthalenesulfonylindole], the inhibition at 5-HT2A receptor and on 5-HT7 receptor was less than 20% each time. The inhibition at 0.1 µM at 5HT2C receptor was less than 20%; at human 5HT6 receptor, greater than 80%.
